According to US20260176254A1, “INHIBITORS OF PROSTATE SPECIFIC MEMBRANE ANTIGEN AND USE THEREOF” (SHANGHAI SINOTAU BIOTECH. CO., LTD, priority 2023, published 2026):

Molecular target: T1, recombinant human PSMA (rhPSMA) (Homo sapiens, UniProt Q04609)
T1 construct: purchased Sino Biological
Test: Naaladase assay (fluorescence-based Naaladase activity inhibition)
Type: biochemical
Details: rhPSMA 0.4 μg/mL, substrate N-Acetyl-Asp-Glu 40 μM, 37° C. one hour
Description: Naaladase activity inhibition was determined using a fluorescence-based assay. Briefly, the solution containing the substrate N-Acetyl-Asp-Glu (Sigma-Aldrich) at 40 μM and the compound at concentrations from 0.15 nM to 1000 nM was mixed at equal volume with recombinant human PSMA (rhPSMA, Sino Biological) at 0.4 μg/mL, in assay buffer (50 mM HEPES, 100 mM NaCl, pH 7.5). The enzymatic reaction was proceeded by incubation at 37° C. for one hour and then stopped by heating at 95° C. for 5 minutes. A solution of 15 mM ortho-phthaldialdehyde (Sigma-Aldrich) was added to all vials and incubated for 10 min at ambient temperature. The reaction solutions were loaded onto a 96-well flat clear bottom black microplates (Corning) and read at excitation and emission wavelengths of 330 and 450 nm, respectively, using a microplate reader (Tecan). The data were analyzed by a one-site total binding regression algorithm of GraphPad Prism (GraphPad Software).

T1 sequence (Q04609 whole entry): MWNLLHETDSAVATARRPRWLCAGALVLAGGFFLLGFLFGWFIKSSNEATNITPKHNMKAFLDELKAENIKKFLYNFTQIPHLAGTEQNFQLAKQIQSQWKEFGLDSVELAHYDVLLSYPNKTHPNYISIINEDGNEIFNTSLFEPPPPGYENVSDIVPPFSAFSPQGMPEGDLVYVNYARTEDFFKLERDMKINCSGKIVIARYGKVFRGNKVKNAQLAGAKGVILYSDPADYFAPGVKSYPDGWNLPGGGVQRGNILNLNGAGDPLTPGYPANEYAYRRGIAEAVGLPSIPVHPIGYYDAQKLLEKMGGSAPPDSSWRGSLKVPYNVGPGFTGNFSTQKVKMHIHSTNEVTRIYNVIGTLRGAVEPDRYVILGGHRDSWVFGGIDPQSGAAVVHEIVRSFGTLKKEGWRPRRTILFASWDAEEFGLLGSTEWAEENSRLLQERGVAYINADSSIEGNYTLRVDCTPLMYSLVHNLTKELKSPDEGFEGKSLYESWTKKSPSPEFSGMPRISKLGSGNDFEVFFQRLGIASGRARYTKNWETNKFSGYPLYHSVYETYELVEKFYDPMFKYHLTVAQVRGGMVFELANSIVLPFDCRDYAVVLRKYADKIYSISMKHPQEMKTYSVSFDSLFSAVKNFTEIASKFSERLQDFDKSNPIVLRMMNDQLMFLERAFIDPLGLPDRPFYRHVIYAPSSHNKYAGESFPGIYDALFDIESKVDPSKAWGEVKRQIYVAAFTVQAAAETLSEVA

IC50	SMILES
10 nM	O=C(O)CCC[C@H](NC(=O)N[C@@H](CCCCNC(=O)[C@H](Cc1c2ccccc2cc2ccccc12)Nc1c(N[C@H]2CC[C@H](c3nnc(CN4CCN(CC(=O)O)CCN(CC(=O)O)CCN(CC(=O)O)CC4)o3)CC2)c(=O)c1=O)C(=O)O)C(=O)O [E11]
3.5 nM	NC(=O)CN1CCN(CC(=O)O)CCN(CC(=O)NC23CCC(Nc4c(N[C@@H](Cc5c6ccccc6cc6ccccc56)C(=O)NCCCC[C@H](NC(=O)N[C@@H](CNC(=O)C(=O)O)C(=O)O)C(=O)O)c(=O)c4=O)(CC2)CC3)CCN(CC(=O)O)CC1 [E16]
